# Toxic doses and inconclusive results are not listed.
# System: L1210 leukemia ip in BDF1 mice, survival T/C
# Assay: NCI In Vivo Anticancer Drug Screen. Data for tumor model L1210 Leukemia (intraperitoneal) in B6D2F1 (BDF1) mice
# Details: endpoint: mean survival time, higher = longer survival
# Summary of the method: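 In this screen, tumor-bearing mice given compound are compared to those given vehicle, and their survival values are reported as a treated-to-control quotient.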
# [1] = dose: 100.0 mg/kg/injection, schedule: Q01DX005 (ip), vehicle: saline
# [2] = dose: 200.0 mg/kg/injection, schedule: Q01DX005 (ip), vehicle: saline
# [3] = dose: 100.0 mg/kg/injection, schedule: Q01DX009 (ip), vehicle: saline with Tween-80
# [4] = dose: 200.0 mg/kg/injection, schedule: Q01DX009 (ip), vehicle: saline with Tween-80
# [5] = dose: 100.0 mg/kg/injection, schedule: Q04DX002 (ip), vehicle: saline with Tween-80
# [6] = dose: 200.0 mg/kg/injection, schedule: Q04DX002 (ip), vehicle: saline with Tween-80
# [7] = dose: 400.0 mg/kg/injection, schedule: Q04DX002 (ip), vehicle: saline with Tween-80
# [8] = dose: 100.0 mg/kg/injection, schedule: Q01DX009 (ip), vehicle: Klucel (hydroxypropylcellulose) (HPC)
# [9] = dose: 200.0 mg/kg/injection, schedule: Q01DX009 (ip), vehicle: Klucel (hydroxypropylcellulose) (HPC)
# [10] = dose: 50.0 mg/kg/injection, schedule: Q01DX001 (ip), vehicle: saline
# [11] = dose: 100.0 mg/kg/injection, schedule: Q01DX001 (ip), vehicle: saline
# [12] = dose: 200.0 mg/kg/injection, schedule: Q01DX001 (ip), vehicle: saline
# [13] = dose: 400.0 mg/kg/injection, schedule: Q01DX001 (ip), vehicle: saline
# [14] = dose: 100.0 mg/kg/injection, schedule: Q04DX002 (ip), vehicle: Klucel (hydroxypropylcellulose) (HPC)
# [15] = dose: 100.0 mg/kg/injection, schedule: Q01DX001 (ip), vehicle: carboxymethylcellulose (CMC)
# [16] = dose: 200.0 mg/kg/injection, schedule: Q01DX001 (ip), vehicle: carboxymethylcellulose (CMC)
# [17] = dose: 200.0 mg/kg/injection, schedule: Q04DX002 (ip), vehicle: Klucel (hydroxypropylcellulose) (HPC)
smiles,measurement,setting,value
CC(C)=CCNc1ncnc2c1c(C(N)=O)cn2C1OC(CO)C(O)C1O (stereo unspecified),T/C,[1],107 % of control
same,T/C,[2],123 % of control
O=C(/C=C/c1ccccc1)C(Cl)C(Cl)c1ccccc1 (stereo unspecified),T/C,"dose: 50.0 mg/kg/injection, schedule: Q01DX009 (sc), vehicle: olive oil, sesame oil, peanut oil",101 % of control
same,T/C,"dose: 100.0 mg/kg/injection, schedule: Q01DX009 (sc), vehicle: olive oil, sesame oil, peanut oil",101 % of control
same,T/C,"dose: 200.0 mg/kg/injection, schedule: Q01DX009 (sc), vehicle: olive oil, sesame oil, peanut oil",97 % of control
CC12CCCCC1=CC(=O)CCC2 (stereo unspecified),T/C,"dose: 50.0 mg/kg/injection, schedule: Q01DX009 (ip), vehicle: saline with Tween-80",98 % of control
same,T/C,[3],98 % of control
same,T/C,[4],98 % of control
COC(=O)C1/C(=C/c2ccccc2)C(=O)c2ccccc21 (stereo unspecified),T/C,[5],87 % of control
same,T/C,[6],87 % of control
same,T/C,[7],94 % of control
C[N+](C)(Cc1ccc(F)cc1)C1c2ccccc2-c2ccccc21,T/C,"dose: 6.25 mg/kg/injection, schedule: Q04DX003 (ip), vehicle: saline with Tween-80",90 % of control
same,T/C,"dose: 25.0 mg/kg/injection, schedule: Q04DX003 (ip), vehicle: saline with Tween-80",89 % of control
O=C(Sc1ccc([N+](=O)[O-])cc1)C(=O)Sc1ccc([N+](=O)[O-])cc1,T/C,[3],87 % of control
same,T/C,[4],97 % of control
O=C(OC1(c2ccccc2)OC(=O)c2ccccc21)c1ccccc1C(=O)c1ccccc1 (stereo unspecified),T/C,"dose: 100.0 mg/kg/injection, schedule: Q04DX003 (ip), vehicle: saline with Tween-80",92 % of control
same,T/C,"dose: 200.0 mg/kg/injection, schedule: Q04DX003 (ip), vehicle: saline with Tween-80",91 % of control
O=C(O)CCc1nc2ccccc2c(=O)[nH]1,T/C,"dose: 50.0 mg/kg/injection, schedule: Q01DX009 (ip), vehicle: Klucel (hydroxypropylcellulose) (HPC)",100 % of control
same,T/C,[8],100 % of control
same,T/C,[9],100 % of control
Cn1c(=O)c2c(ncn2CCO)n(C)c1=O (tested in a mixture with another compound),T/C,[3],89 % of control
same,T/C,"dose: 100.0 mg/kg/injection, schedule: Q04DX003 (ip), vehicle: saline",103 % of control
same,T/C,[4],94 % of control
same,T/C,"dose: 200.0 mg/kg/injection, schedule: Q04DX003 (ip), vehicle: saline",97 % of control
same,T/C,"dose: 400.0 mg/kg/injection, schedule: Q01DX009 (ip), vehicle: saline with Tween-80",87 % of control
same,T/C,"dose: 400.0 mg/kg/injection, schedule: Q04DX003 (ip), vehicle: saline",108 % of control
CCN(CC)CC[n+]1ccccc1,T/C,"dose: 100.0 mg/kg/injection, schedule: Q04DX002 (ip), vehicle: saline",93 % of control
same,T/C,"dose: 200.0 mg/kg/injection, schedule: Q04DX002 (ip), vehicle: saline",100 % of control
C/C(=C\C(C)(C)c1ccccc1)c1ccccc1 (tested in a mixture with another compound),T/C,[10],90 % of control
same,T/C,[11],96 % of control
same,T/C,[12],113 % of control
same,T/C,[13],116 % of control
OC(COc1cccc2ccccc12)CN1CCCCC1 (stereo unspecified),T/C,"dose: 25.0 mg/kg/injection, schedule: Q04DX002 (ip), vehicle: Klucel (hydroxypropylcellulose) (HPC)",106 % of control
same,T/C,"dose: 50.0 mg/kg/injection, schedule: Q04DX002 (ip), vehicle: Klucel (hydroxypropylcellulose) (HPC)",98 % of control
same,T/C,[14],92 % of control
CCCCCCCCCCCCN=C(N)C(N)=NCCCCCCCCCCCC,T/C,"dose: 100.0 mg/kg/injection, schedule: Q04DX002 (ip), vehicle: other",108 % of control
same,T/C,"dose: 200.0 mg/kg/injection, schedule: Q04DX002 (ip), vehicle: other",96 % of control
same,T/C,"dose: 400.0 mg/kg/injection, schedule: Q04DX002 (ip), vehicle: other",87 % of control
ICCC(c1ccccc1)(c1ccccc1)c1ccccc1,T/C,[10],108 % of control
same,T/C,[11],96 % of control
same,T/C,[12],96 % of control
same,T/C,[13],96 % of control
O=C1NC(=O)C2C3C=CC(O3)C12 (stereo unspecified),T/C,"dose: 100.0 mg/kg/injection, schedule: Q01DX009 (ip), vehicle: saline",106 % of control
same,T/C,"dose: 200.0 mg/kg/injection, schedule: Q01DX009 (ip), vehicle: saline",95 % of control
same,T/C,"dose: 400.0 mg/kg/injection, schedule: Q01DX009 (ip), vehicle: saline",97 % of control
ONc1ccc(Cl)cc1,T/C,"dose: 6.25 mg/kg/injection, schedule: Q01DX009 (ip), vehicle: gum acacia",105 % of control
same,T/C,"dose: 12.5 mg/kg/injection, schedule: Q01DX001 (ip), vehicle: gum acacia",104 % of control
same,T/C,"dose: 12.5 mg/kg/injection, schedule: Q01DX009 (ip), vehicle: gum acacia",100 % of control
same,T/C,"dose: 12.5 mg/kg/injection, schedule: Q04DX003 (ip), vehicle: gum acacia",100 % of control
same,T/C,"dose: 25.0 mg/kg/injection, schedule: Q01DX001 (ip), vehicle: gum acacia",104 % of control
same,T/C,"dose: 25.0 mg/kg/injection, schedule: Q04DX003 (ip), vehicle: gum acacia",98 % of control
same,T/C,"dose: 50.0 mg/kg/injection, schedule: Q01DX001 (ip), vehicle: gum acacia",100 % of control
CCC1CN2CCc3cc(OC)c(OC)cc3C2CC1CC1c2cc(OC)c(OC)cc2CCN1C(=O)C1CCCN1 (stereo unspecified),T/C,[10],95 % of control
same,T/C,[11],111 % of control
same,T/C,[12],95 % of control
CCOC(=O)CCN(C(=S)Nc1ccccc1)C1CCCCC1,T/C,"dose: 100.0 mg/kg/injection, schedule: Q01DX Z (ip), vehicle: methylcellulose (MC)",94 % of control
same,T/C,"dose: 200.0 mg/kg/injection, schedule: Q01DX Z (ip), vehicle: methylcellulose (MC)",92 % of control
CCOC(=O)c1ccc(Nc2nc3ccccc3o2)cc1,T/C,[15],91 % of control
same,T/C,[16],94 % of control
same,T/C,"dose: 400.0 mg/kg/injection, schedule: Q01DX001 (ip), vehicle: carboxymethylcellulose (CMC)",93 % of control
NC(=S)c1ncc(N)s1,T/C,[5],92 % of control
same,T/C,[6],100 % of control
same,T/C,[7],120 % of control
O=C1/C(=C\c2ccc(OCc3ccccc3)c(OCc3ccccc3)c2)N2CCC1CC2,T/C,[14],102 % of control
same,T/C,[17],115 % of control
same,T/C,"dose: 400.0 mg/kg/injection, schedule: Q04DX002 (ip), vehicle: Klucel (hydroxypropylcellulose) (HPC)",105 % of control
c1ccn2nncc2c1,T/C,[15],103 % of control
same,T/C,[16],90 % of control
O=C(NCc1cnccn1)c1ccco1,T/C,"dose: 50.0 mg/kg/injection, schedule: Q01DX005 (ip), vehicle: saline",109 % of control
same,T/C,[1],111 % of control
same,T/C,[2],104 % of control
CSc1ccc(NCN2C(=O)c3ccccc3C2=O)cc1,T/C,[8],102 % of control
same,T/C,[9],100 % of control
COc1ccc2nc(/N=C(/N)N=C(N)N)sc2c1,T/C,"dose: 75.0 mg/kg/injection, schedule: Q01DX001 (ip), vehicle: carboxymethylcellulose (CMC)",100 % of control
same,T/C,"dose: 150.0 mg/kg/injection, schedule: Q01DX001 (ip), vehicle: carboxymethylcellulose (CMC)",97 % of control
same,T/C,"dose: 300.0 mg/kg/injection, schedule: Q01DX001 (ip), vehicle: carboxymethylcellulose (CMC)",103 % of control
O=C1OC2(CCNCC2)C(=O)N1c1ccc(F)cc1,T/C,"dose: 12.5 mg/kg/injection, schedule: Q01DX001 (ip), vehicle: carboxymethylcellulose (CMC)",104 % of control
same,T/C,"dose: 25.0 mg/kg/injection, schedule: Q01DX001 (ip), vehicle: carboxymethylcellulose (CMC)",101 % of control
CNc1ncnc2c1c(Br)cn2C1OC(CO)C(O)C1O (stereo unspecified),T/C,"dose: 5.0 mg/kg/injection, schedule: Q01DX001 (ip), vehicle: saline",104 % of control
same,T/C,"dose: 10.0 mg/kg/injection, schedule: Q01DX001 (ip), vehicle: saline",104 % of control
same,T/C,"dose: 20.0 mg/kg/injection, schedule: Q01DX001 (ip), vehicle: saline",104 % of control
CCCCCCCCCCCCOC(=O)NCCCl,T/C,"dose: 100.0 mg/kg/injection, schedule: Q01DX001 (ip), vehicle: saline with Tween-80",103 % of control
same,T/C,"dose: 200.0 mg/kg/injection, schedule: Q01DX001 (ip), vehicle: saline with Tween-80",102 % of control
same,T/C,"dose: 400.0 mg/kg/injection, schedule: Q01DX001 (ip), vehicle: saline with Tween-80",103 % of control
COc1ccc(F)cc1CC#N,T/C,[14],98 % of control
same,T/C,[17],98 % of control

# Source: PubChem BioAssay AID248 (DTP/NCI, 2004)
